Data on eight molecules can be found in ChEMBL document CHEMBL1137379, “9-{[3-fluoro-2-(hydroxymethyl)cyclopropylidene]methyl}adenines and -guanines. Synthesis and antiviral activity of all stereoisomers1” (J Med Chem, 2006).

One may read the EC50 as the concentration giving half of the maximal effect. High values mean a need for much substance, low ones an effect from little substance. A word on the CC50: it is the concentration that lowers cell viability or growth by half.

The structures appear in SMILES notation. Calls of active or inactive are those of the source. The rule behind the calls is not given here.

Test [1] deals with T1, Adenosine deaminase (Bos taurus) (UniProt P56658).
T1 sequence (whole entry): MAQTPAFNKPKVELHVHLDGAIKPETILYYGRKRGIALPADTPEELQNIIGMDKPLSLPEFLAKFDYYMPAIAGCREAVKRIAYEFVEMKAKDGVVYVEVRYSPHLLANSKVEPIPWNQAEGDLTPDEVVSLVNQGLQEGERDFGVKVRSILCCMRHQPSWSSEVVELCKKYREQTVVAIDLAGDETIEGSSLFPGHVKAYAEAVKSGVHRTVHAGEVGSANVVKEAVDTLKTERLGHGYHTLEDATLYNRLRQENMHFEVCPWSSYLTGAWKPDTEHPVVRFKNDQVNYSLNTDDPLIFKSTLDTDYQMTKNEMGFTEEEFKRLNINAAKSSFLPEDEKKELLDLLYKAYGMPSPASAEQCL
As to the kind of experiment: Activity at calf intestine ADA by adenosine deaminase assay after 24 hrs.

For test [2], the system named is Hepatitis B virus. As to the kind of experiment: Inhibition of HBV replication in 2.2.15 cells by DNA hybridization assay. It is filed as functional, organism-based. Conditions: HepG2 2.2.15.
Test [3] has as its system HepG2. As to the kind of experiment: Cytotoxicity against 2.2.15 cells. Conditions: Homo sapiens. It is filed as functional.
Test [4] deals with Human immunodeficiency virus 1. The test can be described thus: Inhibition of HIV1 LAI replication in MT2 cells by cytopathic effect assay. It is filed as functional, organism-based. The following applies: Human immunodeficiency virus 1, LAI. For orientation: Damage to the host cells serves as the signal in cytopathic effect assays.
The subject of test [5] is MT2. As to the kind of experiment: Cytotoxicity against MT2 cells. It is filed as functional. The following applies: Homo sapiens.
For test [6], the system named is Human alphaherpesvirus 1. The test can be described thus: Inhibition of HSV1 replication in BSC1 cells by ELISA. It is filed as functional, organism-based. The following applies: Human alphaherpesvirus 1, BSC-1. Background: In an ELISA, binding on a coated surface is turned into a signal by an enzyme label.
Test [7] deals with KB. As to the kind of experiment: Cytotoxicity against KB cells. It is filed as functional. Conditions: Homo sapiens.
Test [8] has as its system Human gammaherpesvirus 4. The test can be described thus: Inhibition of EBV replication in Daudi cells by viral capsid antigen-ELISA. Conditions: human gammaherpesvirus 4, Daudi. In kind it is functional, organism-based.
Test [9] relates to Daudi. The test can be described thus: Cytotoxicity against Daudi cells. Conditions: Homo sapiens. In kind it is functional.
In test [10] the test system is Human betaherpesvirus 5. As to the kind of experiment: Inhibition of HCMV AD169 replication in HFF cells by cytopathic effect assay. It is filed as functional, organism-based. Conditions: Human betaherpesvirus 5, AD169, HFF.
Test [11] deals with HFF. As to the kind of experiment: Cytotoxicity against HFF cell by neutral red uptake assay. It is filed as functional. The following applies: Homo sapiens.
Test [12] deals with Human gammaherpesvirus 4. The test can be described thus: Inhibition of EBV replication in H1 cells by DNA hybridization assay. It is filed as functional, organism-based. The following applies: human gammaherpesvirus 4, H1.
For test [13], the system named is Human betaherpesvirus 5. The test can be described thus: Inhibition of HCMV towne replication in HFF cells by plaque reduction assay. Conditions: Human betaherpesvirus 5, Towne. It is filed as functional, organism-based. (In general: In a plaque reduction assay, fewer plaques than in the control indicate reduced infectivity or spread.)
The target in test [14] is T1, Adenosine deaminase (Bos taurus). The test can be described thus: Activity at calf intestine ADA by adenosine deaminase assay after 48 hrs.

In turn, `Nc1ncnc2c1ncn2/C=C1/[C@@H](F)[C@@H]1CO` (relative stereo) returned an Activity in [1] of 50%.
For the molecule `Nc1ccn([C@@H]2CS[C@H](CO)O2)c(=O)n1` [LAMIVUDINE], a half-maximal effect in test [2] (EC50) was put at 20 nM. For the same molecule, the CC50 in test [3] is > 100000 nM.
Consider `Nc1ncnc2c1ncn2/C=C1/[C@@H](CO)[C@H]1F` (relative stereo), for which, in [1], the Activity came out at 50%.
Consider `Cc1cn([C@H]2C[C@H](N=[N+]=[N-])[C@@H](CO)O2)c(=O)[nH]c1=O` [ZIDOVUDINE], for which the EC50 in test [4] was found to be 20 nM. Also, in [5], the CC50 is > 10000 nM.
Molecule `Nc1ncnc2c1ncn2/C=C1/[C@@H](F)[C@H]1CO` (relative stereo) came in with an Activity in test [1] of 50%.
`Nc1nc2c(ncn2COCCO)c(=O)[nH]1` [ACYCLOVIR]: the EC50 in test [6] came to 3500 nM; in test [8], 330 nM. Further, the CC50 in test [7] and in test [9] was > 100000 nM each time.
`Nc1nc2c(ncn2COC(CO)CO)c(=O)[nH]1` [GANCICLOVIR]: the EC50 in test [10] is 150 nM; in test [12], 5000 nM; in test [13], 1800 nM. Further, in [11], the CC50 was > 100000 nM.
`Nc1ncnc2c1ncn2/C=C1\[C@H](F)[C@H]1CO` (relative stereo): the result in test [14] was inactive.
